Measured values reported in ChEMBL document CHEMBL1201862, “PubChem BioAssay data set” (2004).
Several values for one entry are separate records, joined by “and”; a condition that tells them apart may be missing. Equal entries are not always repeated.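 Each compound was tested at five concentrations against cells in 96-well plates for 48 hours. At the GI50, growth is halved.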 Activity calls are given as the source filed them. Cut-off read from the data, not from the text of the source: active = GI50 up to about 1.1 µM and inactive = higher.

Tests used:
Experiment in all cases: NCI-60 cell line screen, 48 h
CAKI-1 = test system: CAKI-1
Hs-578T = test system: Hs-578T
RXF 393 = test system: RXF 393
SK-MEL-2 = test system: SK-MEL-2
KM12 = test system: KM12
SF-539 = test system: SF-539
NCI-H522 = test system: NCI-H522
NCI/ADR-RES = test system: NCI/ADR-RES
RPMI-8226 = test system: RPMI-8226
MOLT-4 = test system: MOLT-4
Malme-3M = test system: Malme-3M
HCC 2998 = test system: HCC 2998
HOP-92 = test system: HOP-92
SK-OV-3 = test system: SK-OV-3
LOX IMVI = test system: LOX IMVI
PC-3 = test system: PC-3
SK-MEL-5 = test system: SK-MEL-5
OVCAR-4 = test system: OVCAR-4
UO-31 = test system: UO-31
NCI-H226 = test system: NCI-H226
TK-10 = test system: TK-10
HCT-116 = test system: HCT-116
SNB-19 = test system: SNB-19
MDA-MB-231 = test system: MDA-MB-231
K562 = test system: K562
U-251 = test system: U-251
SN12C = test system: SN12C
MDA-N = test system: MDA-N
OVCAR-8 = test system: OVCAR-8
ACHN = test system: ACHN
SK-MEL-28 = test system: SK-MEL-28
OVCAR-5 = test system: OVCAR-5
T47D = test system: T47D
IGROV-1 = test system: IGROV-1
COLO 205 = test system: COLO 205
DU-145 = test system: DU-145
A549 = test system: A549
HOP-62 = test system: HOP-62
NCI-H23 = test system: NCI-H23
HCT-15 = test system: HCT-15
UACC-257 = test system: UACC-257
HT-29 = test system: HT-29
SF-295 = test system: SF-295
MDA-MB-435 = test system: MDA-MB-435
M14 = test system: M14
SNB-75 = test system: SNB-75
EKVX = test system: EKVX
SW-620 = test system: SW-620
SF-268 = test system: SF-268
CCRF-CEM = test system: CCRF-CEM
A498 = test system: A498
786-0 = test system: 786-0
HL-60 = test system: HL-60
OVCAR-3 = test system: OVCAR-3
NCI-H460 = test system: NCI-H460
MCF7 = test system: MCF7
UACC-62 = test system: UACC-62
SR = test system: SR

COc1cc(CC(C)N[C@@H](C)c2ccccc2)cc(OC)c1 (stereo partly specified)
GI50 (CAKI-1): > 100 µM (inactive)
GI50 (Hs-578T): 72.1 µM (inactive)
GI50 (RXF 393): > 100 µM (inactive)
GI50 (SK-MEL-2): > 100 µM (inactive)
GI50 (KM12): > 100 µM (inactive)
GI50 (SF-539): > 100 µM (inactive)
GI50 (NCI-H522): > 100 µM (inactive)

CCCOc1c2cc(COC3OC(CO)C(O)C(O)C3O)cc1Cc1cc(COC3OC(CO)C(O)C(O)C3O)cc(c1OCCC)Cc1cc(COC3OC(CO)C(O)C(O)C3O)cc(c1OCCC)Cc1cc(COC3OC(CO)C(O)C(O)C3O)cc(c1OCCC)C2 (stereo unspecified)
GI50 (NCI/ADR-RES): > 100 µM (inactive) and 92.7 µM (inactive)
GI50 (RPMI-8226): 50.7 µM (inactive) and 54.3 µM (inactive)
GI50 (MOLT-4): 14.4 µM (inactive)
GI50 (Hs-578T): 54 µM (inactive) and 39.1 µM (inactive)
GI50 (Malme-3M): > 100 µM (inactive)
GI50 (HCC 2998): 45.6 µM (inactive) and 57.8 µM (inactive) and 32 µM (inactive)
GI50 (HOP-92): 48.9 µM (inactive) and 57.1 µM (inactive)

COc1cc(C)c(/C=C/C(=O)N2C(=O)OC[C@@H]2c2ccccc2)c(C)c1
GI50 (SK-OV-3): > 100 µM (inactive)
GI50 (LOX IMVI): > 100 µM (inactive)
GI50 (PC-3): 50.4 µM (inactive)
GI50 (SK-MEL-5): 60.8 µM (inactive)
GI50 (OVCAR-4): 81.3 µM (inactive)
GI50 (UO-31): > 100 µM (inactive)
GI50 (NCI-H226): > 100 µM (inactive)
GI50 (TK-10): > 100 µM (inactive)
GI50 (NCI/ADR-RES): 28.6 µM (inactive)
GI50 (HCT-116): 89.3 µM (inactive)
GI50 (CAKI-1): > 100 µM (inactive)
GI50 (SNB-19): > 100 µM (inactive)
GI50 (MDA-MB-231): > 100 µM (inactive)
GI50 (RPMI-8226): 48.3 µM (inactive)
GI50 (K562): 78.9 µM (inactive)
GI50 (MOLT-4): 31.1 µM (inactive)
GI50 (U-251): > 100 µM (inactive)
GI50 (SN12C): > 100 µM (inactive)
GI50 (Hs-578T): 88.9 µM (inactive)
GI50 (MDA-N): > 100 µM (inactive)
GI50 (OVCAR-8): 40.2 µM (inactive)
GI50 (RXF 393): 9.02 µM (inactive)
GI50 (ACHN): > 100 µM (inactive)
GI50 (SK-MEL-28): > 100 µM (inactive)
GI50 (OVCAR-5): > 100 µM (inactive)
GI50 (T47D): 23.2 µM (inactive)
GI50 (IGROV-1): > 100 µM (inactive)
GI50 (COLO 205): > 100 µM (inactive)
GI50 (DU-145): 37.6 µM (inactive)
GI50 (A549): > 100 µM (inactive)
GI50 (HOP-62): > 100 µM (inactive)
GI50 (NCI-H23): > 100 µM (inactive)
GI50 (SK-MEL-2): > 100 µM (inactive)
GI50 (HCT-15): 74 µM
GI50 (UACC-257): 88.7 µM (inactive)
GI50 (Malme-3M): > 100 µM (inactive)
GI50 (HT-29): 18.6 µM (inactive)
GI50 (SF-295): > 100 µM (inactive)
GI50 (MDA-MB-435): > 100 µM (inactive)
GI50 (KM12): 61.9 µM (inactive)
GI50 (M14): > 100 µM (inactive)
GI50 (SNB-75): 34.3 µM (inactive)
GI50 (HCC 2998): 73.1 µM (inactive)
GI50 (EKVX): 98.9 µM (inactive)
GI50 (HOP-92): > 100 µM (inactive)
GI50 (SF-539): > 100 µM (inactive)
GI50 (NCI-H522): > 100 µM (inactive)
GI50 (SW-620): > 100 µM (inactive)
GI50 (SF-268): > 100 µM (inactive)
GI50 (CCRF-CEM): 61.8 µM (inactive)
GI50 (A498): 52.5 µM (inactive)
GI50 (786-0): > 100 µM (inactive)
GI50 (HL-60): 98.4 µM (inactive)
GI50 (OVCAR-3): > 100 µM (inactive)

O=C(CC(C(=O)c1cccs1)c1ccccc1)c1ccccc1O (stereo unspecified)
GI50 (SK-OV-3): 8.57 µM (inactive)
GI50 (LOX IMVI): 12.4 µM (inactive)
GI50 (PC-3): 14 µM (inactive)
GI50 (SK-MEL-5): 9.48 µM (inactive)
GI50 (OVCAR-4): 16.4 µM (inactive)
GI50 (UO-31): 18.5 µM (inactive)
GI50 (NCI-H226): > 57.7 µM (inactive)
GI50 (TK-10): > 41.1 µM (inactive)
GI50 (NCI/ADR-RES): 6.01 µM (inactive)
GI50 (HCT-116): 4.74 µM (inactive)
GI50 (CAKI-1): 8.95 µM (inactive)
GI50 (SNB-19): 23.9 µM (inactive)
GI50 (RPMI-8226): 12.8 µM (inactive)
GI50 (K562): 3.1 µM (inactive)
GI50 (MOLT-4): 7.08 µM (inactive)
GI50 (U-251): 9.93 µM (inactive)
GI50 (SN12C): > 20.7 µM (inactive)
GI50 (Hs-578T): 5.81 µM (inactive)
GI50 (MDA-N): 4.93 µM (inactive)
GI50 (NCI-H460): 48.1 µM (inactive)
GI50 (OVCAR-8): 9.62 µM (inactive)
GI50 (RXF 393): 5.19 µM (inactive)
GI50 (ACHN): 11.3 µM (inactive)
GI50 (SK-MEL-28): 20 µM (inactive)
GI50 (OVCAR-5): > 100 µM (inactive)
GI50 (T47D): 9.66 µM (inactive)
GI50 (IGROV-1): 4.98 µM (inactive)
GI50 (COLO 205): > 50.7 µM (inactive)
GI50 (DU-145): 36.4 µM (inactive)
GI50 (A549): 13.1 µM (inactive)
GI50 (MCF7): 9.86 µM (inactive)
GI50 (HOP-62): 18.2 µM (inactive)
GI50 (NCI-H23): > 42.6 µM (inactive)
GI50 (SK-MEL-2): > 21.8 µM (inactive)
GI50 (HCT-15): 8 µM
GI50 (UACC-257): > 30.7 µM (inactive)
GI50 (HT-29): 11.9 µM (inactive)
GI50 (SF-295): 8.67 µM (inactive)
GI50 (MDA-MB-435): 3.1 µM (inactive)
GI50 (KM12): 20.9 µM (inactive)
GI50 (M14): 4 µM (inactive)
GI50 (SNB-75): > 20.6 µM (inactive)
GI50 (EKVX): 12.7 µM (inactive)
GI50 (HOP-92): 7.6 µM (inactive)
GI50 (SF-539): 34.1 µM (inactive)
GI50 (NCI-H522): 3.21 µM (inactive)
GI50 (SW-620): 46 µM (inactive)
GI50 (SF-268): 8.28 µM (inactive)
GI50 (CCRF-CEM): 2.55 µM (inactive)
GI50 (786-0): 9.91 µM (inactive)
GI50 (UACC-62): 14.7 µM (inactive)
GI50 (SR): 9.27 µM (inactive)
GI50 (OVCAR-3): 83 µM (inactive)
